Values of other authors, collected in patent US10821185B2, “Triglyceride otic formulations and uses thereof” (Otonomy, Inc., priority 2016, dated 2020).
Where a name gives a salt, the structure may show the parent alone.

Tests used:
[1] = system: V2-R; conditions: infusion into the scala tympani
[2] = target: D136A mutant VP2 receptor (Homo sapiens, UniProt P30518, D136A)
[3] = after topical application
[4] = system: mouse collagen-induced arthritis model; conditions: 30 mg/kg dose
[5] = system: LPS-induced human PBMC cells; conditions: read-out: IC50 for inhibiting TNF-α production
[6] = system: tinnitus; conditions: administered by IV
[7] = system: LPS-induced MonoMac-6 cells; conditions: read-out: IC50 for inhibiting TNF-α production
[8] = system: TNF-α; conditions: LPS-challenged mice
[9] = system: rat arthritis model; conditions: 30 mg/kg
[10] = systemic administration
[11] = systemically treated

With `Cc1ccccc1C(=O)Nc1ccc(C(=O)N2CCCC(N(C)C)c3ccccc32)cc1` (racemic) [OPC-31260, (±)-5-dimethylamino-1-(4-[2-methylbenzoylamino]benzoyl)-2,3,4,5-tetrahydro-1H-benzazepin hydrochloride] as the compound, how does the “Meniere's disease symptoms” value [1] read?
The value was “marked reduction of Meniere's disease symptoms”.

What about the “behaviour at constitutively activated D136A mutant VP2 receptor” value [2] of the same compound?
The value was “inverse agonist”.

Which bioavailability [3] does the source give for `C=CC[C@@H]1/C=C(\C)C[C@H](C)C[C@H](OC)[C@H]2O[C@@](O)(C(=O)C(=O)N3CCCC[C@H]3C(=O)O[C@H](/C(C)=C/[C@@H]3CC[C@@H](O)[C@H](OC)C3)[C@H](C)[C@@H](O)CC1=O)[C@H](C)C[C@@H]2OC` (relative stereo) [tacrolimus, [3S-[3R*[E(1S*,3S*,4S*)], 4S*,5R*,8S*,9E,12R*,14R*,15S*,16R*,18S*,19S*,26aR*]]-5,6,8,11,12,13,14,15,16,17,18,19,24,25,26,26a-hexadecahydro-5,19-dihydroxy-3-[2-(4-hydroxy-3-methoxycyclohexyl)-1-methylethenyl]-14,16-dimethoxy-4,10,12,18-tetramethyl-8-(2-propenyl)-15,19-epoxy-3H-pyrido[2,1-39c][1,4]oxaazacyclotricosine-1,7,20,21(4H,23H)-tetrone monohydrate] here?
Its bioavailability is “less than 0.5%”.

Which severity of disease [4] does the source give for `Cc1ccc2nc(NCCN)c3ncc(C)n3c2c1` [BMS-345541] here?
Its severity of disease is “significantly reduced the severity of disease”.

Which IC50 [5] does the source give for `CC[C@H](C)[C@H](NC(=O)[C@H](CC(C)C)[C@H](C(C)C)N(O)C=O)C(=O)Nc1ccccn1` [GW3333] here?
Its IC50 is 970 nM.

Which “sufferers in whom the noise associated with tinnitus is reduced or eliminated” value [6] does the source give for `CCN(CC)CC(=O)Nc1c(C)cccc1C` [Lidocaine] here?
Its value is 60-80%.

With `CC(C)C[C@@H](C(=O)N[C@@H](CCCN/C(N)=N/[N+](=O)[O-])C(=O)Nc1nccs1)[C@H](C(C)C)N(O)C=O` [Nitroarginine analog A] as the compound, how does the IC50 [7] read?
The IC50 was 34 nM.

Which “production of TNF-α” value [8] does the source give for `O=C(Nc1cc(Cl)cc2c1[nH]c1cnccc12)c1cccnc1` [PS-1145] here?
The value was “reduces the production of TNF-α”.

With `COc1cccc2nc(-c3cccs3)nc(NN3C(=O)C=C(C)C3=O)c12` [SPC-839] as the compound, how does the paw edema [9] read?
The paw edema was “reduces paw edema”.

With `CCOc1ccc2c(c1)C1(CCC(OCCN3CCOCC3)CC1)C(=O)N2S(=O)(=O)c1ccc(C(=O)NC(C)(C)C)cc1OC` (stereo not drawn) [SR-1211463, 1-(4-(N-tert-butylcarbamoyl)-2-methoxybenzenesulfonyl)-5-ethoxy-3-spiro-(4-(2-morpholinoethoxy)cyclohexane)indol-2-one fumarate] as the compound, how does the “behaviour at constitutively activated D136A mutant VP2 receptor” value [2] read?
Its value is “inverse agonist”.

Which “patients developing injection site reactions (erythema and/or itching, hemorrhage, pain and/or swelling)” value [10] does the source give for adalimumab here?
Its value is 20%.

Which “patients experiencing injection site reactions” value [11] does the source give for etanercept here?
The value was “over one-third of patients”.
